Test results taken from patent US20060052459A1, “Antifungal medicaments comprising arylamidine derivatives” (priority 2002, published 2006).
Read-outs that look alike come from different tables or passages of the source.

Assays:
[1] = tested on: Candida albicans strains IP 48.72 (ATCC 10231); assay: In vitro antifungal growth inhibition on microtitre plates (optical density 590 nm), compounds alone or as mixtures (Wadley method); assay type: cell-based; details: for inhibition at 0.026 µg/mL / inhibition at 0.098 µg/mL / inhibition at 0.39 µg/mL / inhibition at 1.562 µg/mL / inhibition at 6.25 µg/mL / inhibition at 25 µg/mL / inhibition at 100 µg/mL / EC50: Candida albicans; for inhibition at 0.026 µg/mL: dose 0.026 μg/ml; for inhibition at 0.098 µg/mL: dose 0.098 μg/ml; for inhibition at 0.39 µg/mL: dose 0.39 μg/ml; for inhibition at 1.562 µg/mL: dose 1.562 μg/ml; for inhibition at 6.25 µg/mL: dose 6.25 μg/ml; for inhibition at 25 µg/mL: dose 25 μg/ml; for inhibition at 100 µg/mL: dose 100 μg/ml
Protocol: (§1) The following fungi were used for this study: Candida albicans strains IP 48.72 (ATCC 10231) and Aspergillus fumigatus strain IP 864.64 obtained from the Collection Nationale de Cultures de Microorganismes (CNCM) of the Institut Pasteur. The strains are cultured on Yeast Extract-Peptone-Dextrose (YEPD) agar medium comprising 0.5% yeast extract, 0.5% bactopeptone, 2% glucose and 2% agar at 30° C. and in the dark.
(§2) All these compounds were prepared in a DMSO solution at a final concentration of 100 mg/ml. The stock solutions are stored at −20° C. up to the time of use.
(§3) The trials are carried out in RPMI 1640 medium with no sodium bicarbonate, but with L-glutamine buffered with 0.165 mol per litre of 3-[N-morpholino]propanesulphonic acid (MOPS), enriched (<>) or otherwise (<>) with 2% glucose. The pH of this medium is adjusted to 7.0. The medium is sterilized by filtration (0.22 μm) and stored at 4° C. up to the time of use.
(§4) All the antifungal tests are carried out on microtitre plates. The initial suspensions of spores are prepared in a sterile solution containing 0.85% NaCl, supplemented with Tween 80 at 0.01%. These initial suspensions are then diluted in the culture medium (RPMI 1640 enriched or otherwise with 2% glucose) to a final concentration of 10^4 spores per ml. The measurements of viability of each inoculum are verified by subcultures of a volume of 300 μl on YEPD agar medium.
(§5) The antifungal compounds are tested in a range of concentrations ranging from 0.026 to 100 μg of active ingredient/ml. These antifungal compounds are then diluted in RPMI 1640 medium enriched or otherwise with 2% glucose. A final DMSO concentration of 0.2% is used throughout the measurements. Each trial is carried out on a series of dilutions of antifungal compounds, in duplicate. The antifungal dilutions (0.1 ml) and the fungal inoculum (0.1 ml) are added to each of the wells of the microtitre plate. The plates are then read with a spectrophotometer (ELX 800UV Bio-Tek Instruments, Inc) at a wavelength of 590 nm. The plates are read immediately after (t=0) and after 48 hours' incubation at 30° C. and in the dark. The optical density values obtained are correlated with fungal growth between the times t=0 and t=48 hours. The optical density values are used to calculate the percentage inhibition of growth for each concentration of antifungals by comparison with the control. The values are then used to plot a dose-response curve and the EC50 value is determined for each fungus and each compound with the aid of the Grafit 5.0® software (Erithacus software Ltd).
(§6) The method which was used to measure the type of interaction existing between the antifungal compounds in the form of mixtures is the Wadley method.
(§7) In the Wadley approach, the dose-response curve for each of the compounds A and B, and for the mixture AB, is constructed. The EC50 is calculated for each compound taken individually and for the mixture. If a and b are the absolute quantities of the compounds A and B in the mixture (a=1, b=1, a+b=2 under our conditions), the expected effective concentration (EC50exp) may be calculated in the following manner: EC50exp=(a+b)/[a/EC50A)+b/(EC50B)
(§8) The Wadley approach may be used to estimate the type of interaction existing between the fungal compounds, regardless of their concentration. Its reliability is not dependent on the percentage inhibition. The type of interaction between two compounds is given by the level of interaction (LI) which corresponds to the ratio between the expected effective concentration (EC50exp) and that observed (EC50obs) of the mixture. The nature of the interaction obtained by the Wadley formula is presented in Table 1 (see U. Gisi, Synergistic interaction in fungicide mixtures, 1996. Phytopathology 86, 1273-1279) below.
(§9) The experimental conditions are the same as previously described.

[2] = tested on: Aspergillus fumigatus strain IP 864.64; assay: as above; assay type: cell-based; details: for inhibition at 0.026 µg/mL / inhibition at 0.098 µg/mL / inhibition at 0.39 µg/mL / inhibition at 1.562 µg/mL / inhibition at 6.25 µg/mL / inhibition at 25 µg/mL / inhibition at 100 µg/mL / EC50: Aspergillus fumigatus; for inhibition at 0.026 µg/mL: dose 0.026 μg/ml; for inhibition at 0.098 µg/mL: dose 0.098 μg/ml; for inhibition at 0.39 µg/mL: dose 0.39 μg/ml; for inhibition at 1.562 µg/mL: dose 1.562 μg/ml; for inhibition at 6.25 µg/mL: dose 6.25 μg/ml; for inhibition at 25 µg/mL: dose 25 μg/ml; for inhibition at 100 µg/mL: dose 100 μg/ml
Protocol: as §1, §2, §3, §4, §5, §6, §7, §8, §9

[3] = ATCC10231, 48 h, minimal RPMI 1640 medium (MM), 48 hours at 30° C.
[4] = ATCC10231, 48 h, rich RPMI 1640 medium (RM), 48 hours at 30° C.
[5] = IP864.64, 48 h, minimal RPMI 1640 medium (MM), 48 hours at 30° C.
[6] = IP864.64, 48 h, rich RPMI 1640 medium (RM), 48 hours at 30° C.

CCN(C)C=Nc1cc(C)c(Oc2ccc(Cl)c(C(F)(F)F)c2)cc1C [Compound I.1, N-ethyl-N-methyl-N′-[4-(4-chloro-3-trifluoromethylphenoxy)-2,5-dimethylphenyl]imidoformamide] showed an inhibition at 0.026 µg/mL [1, 3] of 4.6%, an inhibition at 0.026 µg/mL [1, 4] of 12.6% and an inhibition at 0.098 µg/mL [1, 3] of 7%. For the same compound, the inhibition at 0.098 µg/mL [1, 4] was 27.3%, the inhibition at 0.39 µg/mL [1, 3] was 46.1% and the inhibition at 0.39 µg/mL [1, 4] was 43.6%. The inhibition at 1.562 µg/mL [1, 3] was 96.2%, the inhibition at 1.562 µg/mL [1, 4] was 96.9% and the inhibition at 6.25 µg/mL [1, 3] was 98.7%. The inhibition at 6.25 µg/mL [1, 4] was 99.5%, the inhibition at 25 µg/mL [1, 3] was 99.2% and the inhibition at 25 µg/mL [1, 4] was 99.5%. For the same compound, the inhibition at 100 µg/mL [1, 3] was 98.1%, the inhibition at 100 µg/mL [1, 4] was 98.8% and the EC50 ([1]; ATCC10231, 48 h, minimal RPMI 1640 medium (MM), 48 hours at 30° C., used alone, read-out: EC50) was 0.41 µg/mL. For the same compound, the EC50 ([1]; ATCC10231, 48 h, rich RPMI 1640 medium (RM), 48 hours at 30° C., used alone, read-out: EC50) was 0.3 µg/mL, the EC50 ([1]; ATCC10231, 48 h, second study, strain IP 48.72, RPMI 1640 medium enriched with 2% glucose, 48 hours at 30° C., read-out: EC50) was 0.635 µg/mL and the EC50 ([1]; ATCC10231, on minimal (MM) or rich (RM) RPMI 1640 medium, summary in conclusions, read-out: EC50 values) was 0.1 to 0.5 µg/mL. For the same compound, the “activity compared with fluconazole (compound II.1)” value ([1]; MM or RM medium) was “at least equivalent”, the inhibition at 0.026 µg/mL [2, 5] was 1% and the inhibition at 0.026 µg/mL [2, 6] was 2.24%. It also gave an inhibition at 0.098 µg/mL [2, 5] of 57.9%, an inhibition at 0.098 µg/mL [2, 6] of 23.1% and an inhibition at 0.39 µg/mL [2, 5] of 80.1%. For the same compound, the inhibition at 0.39 µg/mL [2, 6] was 51.1%, the inhibition at 1.562 µg/mL [2, 5] was 94.6% and the inhibition at 1.562 µg/mL [2, 6] was 97.4%. It also gave an inhibition at 6.25 µg/mL [2, 5] of 97.1%, an inhibition at 6.25 µg/mL [2, 6] of 98.1% and an inhibition at 25 µg/mL [2, 5] of 98.4%. The inhibition at 25 µg/mL [2, 6] was 98.1%, the inhibition at 100 µg/mL [2, 5] was 98.1% and the inhibition at 100 µg/mL [2, 6] was 97.4%. For the same compound, the EC50 ([2]; IP864.64, 48 h, minimal RPMI 1640 medium (MM), 48 hours at 30° C., used alone, read-out: EC50) was 0.1 µg/mL, the EC50 ([2]; IP864.64, 48 h, rich RPMI 1640 medium (RM), 48 hours at 30° C., used alone, read-out: EC50) was 0.31 µg/mL and the EC50 ([2]; IP864.64, 48 h, second study, strain IP 864.64, RPMI 1640 medium enriched with 2% glucose, 48 hours at 30° C., read-out: EC50) was 0.179 µg/mL. The EC50 ([2]; IP864.64, on minimal (MM) or rich (RM) RPMI 1640 medium, summary in conclusions, read-out: EC50 values) was 0.1 to 0.5 µg/mL, the “activity compared with itraconazole (compound II.2)” value ([2]; MM or RM medium) was “equivalent” and the “EC50 compared with that of compound II.2” value ([2]; second study, IP 864.64, enriched medium) was “similar”.
